# Test results taken from paper PMC5454376, “Molecular mechanism of Gαi activation by non-GPCR proteins with a Gα-Binding and Activating motif” (Nature Communications, 2017).
# System: Gαi3 N269D
# Experiment: Co-immunoprecipitation in HEK293T cells, Gαi3 N269D versus WT
# Assay type: binding
# Details: HEK293T lysates, FLAG-tagged Gαi3 N269D vs WT; GST-Ric-8A 1 μg added
# Protocol: HEK293T cells (American Type Culture Collection) were grown at 37 °C in DMEM supplemented with 10% FBS, 100 U ml^−1 penicillin, 100 μg ml^−1 streptomycin, 1% L-glutamine and 5% CO2. DNA plasmids encoding for C-terminally 3xFLAG-tagged Gαi3 (ref. [25]) or an empty plasmid (p3xFLAG-CMV-14) were transfected using the calcium phosphate method in 10 cm dishes. The DNA amount for the Gαi3 N269D plasmid was threefold (12 μg) of that for Gαi3 WT (4 μg) to equalize their expression levels. Cells were collected 48 h after transfection by gently scrapping in PBS, centrifuged and resuspended in 1 ml of lysis buffer (20 mM HEPES (pH 7.2), 5 mM Mg(CH3COO)2, 125 mM K(CH3COO), 0.4% (v:v) Triton X-100, 1 mM DTT, 10 mM β-glycerophosphate and 0.5 mM Na3VO4 supplemented with a protease inhibitor cocktail (Sigma; catalogue #S8830)) and cleared (14,000g for 10 min) before use. Lysates were supplemented with 1 μg of purified GST-Ric-8A (12–491)[22] and 2 μg of mouse anti-FLAG antibody (Sigma F1804), and incubated for 4 h at 4 °C with rotation. BSA-blocked Protein G agarose beads (Thermo-Scientific) were added and tubes incubated for additional 90 min at 4 °C. Beads were washed four times (4.3 mM Na2HPO4, 1.4 mM KH2PO4, pH 7.4, 137 mM NaCl, 2.7 mM KCl, 0.1% (v/v) Tween 20, 10 mm MgCl2, 5 mm EDTA and 1 mm DTT) and immunoprecipitated proteins eluted by boiling in Laemmli sample buffer. […]
substance,measurement,value
"Full-length GIV: full-length GIV from HEK293T cells, 1,870 amino acids",co-immunoprecipitation with nucleotide-free-mimicking mutant compared with WT,as efficiently as with the wild-type (WT) protein
